US10906878B2, “Kinase inhibitors for the treatment of disease” (Dana-Farber Cancer Institute, Inc., priority 2013, dated 2021)
Read-outs that look alike come from different tables or passages of the source.

Assays:
EGFR Del Ba/F3 cells = EGFR Del Ba/F3 cells (Homo sapiens, UniProt P00533, cells depend on it, form not given); assay: Ba/F3 cell growth inhibition (MTS assay), EGFR Del; assay type: cell-based; conditions: for IC50: Del, read-out: EGFR Ba/F3 cells IC 50 (nM) Assay 1 Del; for EGFR activity (% Control, 100 nM drug) Del: Table F
Excerpt: (§1) The specific cDNAs encoding the oncogenic alterations (EGFR: Del 19, L858R, L718Q, L844V, Del/T790M, L858R/T790M, Del 19/L718Q, Del 19/L844V, Del 19/T790M/L718Q and L858R/T790M/L718Q; FGFR: TEL-FGFR1, TEL-FGFR2, TEL-FGFR1 V561M, TEL-FGFR2 V561M; ALK: EML4-ALK; ROS1: CD74-ROS1) were cloned into the pDNA-Dual (BD Biosciences) vector using standard molecular biology techniques. Mutations were introduced using site-directed mutagenesis (Agilent) with mutant specific primers according to the manufacturer's instructions. All constructs were confirmed by DNA sequencing. The constructs were introduced into Ba/F3 cells using retroviral infection. Polyclonal cell lines were established by puromycin selection and subsequently cultured in the absence of interleukin-3 (IL-3). Uninfected Ba/F3 cells or cell lines expressing green fluorescent protein (GFP) were used as controls.
(§2) Growth and inhibition of growth was assessed by MTS assay. This assay, a colorimetric method for determining the number of viable cells, is based on the bioreduction of 3-(4,5-dimethylthiazol-2-yl)-5-(3-carboxymethoxyphenyl)-2-(4-sulfophenyl)-2H-tetrazolium (MTS) by cells to a formazan product that is soluble in cell culture medium, can be detected spectrophotometrically and was performed according to the manufacturer's recommended conditions. Ba/F3 cells were exposed to treatment for 72 hours and the number of cells used per experiment determined empirically to assure linear growth kinetics over that time period. All experimental points were set up in six to twelve wells and all experiments were repeated at least three times. […] The curves were fitted using a non-linear regression model with a sigmoidal dose response.

KIF5B/Ret_V804M = assay: Ba/F3 cell growth inhibition (MTS assay), KIF5B/Ret_V804M; assay type: cell-based
Description: as §2

[1] = biological target: EGFR Del/T790M Ba/F3 cells (Homo sapiens, UniProt P00533, T790M, cells depend on it, form not given); assay: Ba/F3 cell growth inhibition (MTS assay), EGFR Del/T790M; assay type: cell-based; conditions: for IC50: Del/T790M, read-out: EGFR Ba/F3 cells IC 50 (nM) Assay 1 Del/T790M
Excerpt: as §1, §2

[2] = biological target: EGFR Del/T790M/L718Q Ba/F3 cells (Homo sapiens, UniProt P00533, L718Q/T790M, cells depend on it, form not given); assay type: cell-based
Excerpt: as §1, §2

EGFR L858R Ba/F3 cells = EGFR L858R Ba/F3 cells (Homo sapiens (Human), UniProt P00533, L858R); assay: Ba/F3 cell growth inhibition (MTS assay), EGFR L858R; assay type: cell-based; conditions: for IC50: L858R, read-out: EGFR Ba/F3 cells IC 50 (nM) Assay 1 L858R
Excerpt: as §1, §2

[3] = Microsome Stability Mouse; assay type: in vitro ADME; conditions: mouse microsomes
[4] = biological target: EGFR L858R/T790M Ba/F3 cells (Homo sapiens (Human), UniProt P00533, L858R/T790M); assay: Ba/F3 cell growth inhibition (MTS assay), EGFR L858R/T790M; assay type: cell-based; conditions: for IC50: Assay 1, L858R/T790M, read-out: EGFR Ba/F3 cells IC 50 (nM) Assay 1 L858R/T790M
Excerpt: as §1, §2

[5] = biological target: EGFR Wild type vIII Ba/F3 cells (Homo sapiens (Human), UniProt P00533, DELINS30-297G); assay: Ba/F3 cell growth inhibition (MTS assay), EGFR Wild type vIII; assay type: cell-based; conditions: Assay 1, read-out: EGFR Ba/F3 cells IC 50 (nM) Assay 1 Wild type vIII
[6] = biological target: EGFR L858R/T790M/L718Q Ba/F3 cells (Homo sapiens (Human), UniProt P00533, L718Q/L858R/T790M); assay: Ba/F3 cell growth inhibition (MTS assay), EGFR L858R/T790M/L718Q; assay type: cell-based; conditions: for IC50: Assay 1, T/L/L718Q, read-out: EGFR Ba/F3 cells IC 50 (nM) Assay 1 T/L/L718Q; for EGFR activity (% Control, 100 nM drug) L858R/T790M/L718Q: Table F
Excerpt: as §1, §2

[7] = biological target: EGFR L718Q/L858R Ba/F3 cells (Homo sapiens (Human), UniProt P00533, L718Q/L858R); assay: Ba/F3 cell growth inhibition (MTS assay), EGFR L858R/L718Q; assay type: cell-based; conditions: for EGFR activity (% Control, 100 nM drug) L858R/L718Q: Table F; for IC50: Assay 1, L718Q/L858R, read-out: EGFR Ba/F3 cells IC 50 (nM) Assay 1 L718Q/L858R

SMILES | EGFR activity (% Control, 1.0 μM drug) Assay 1 KIF5B/Ret_V804M (KIF5B/Ret_V804M) | EGFR activity (% Control, 1.0 μM drug) Assay 1 Del/T790M/L718Q ([2]; 1.0 μM drug, Assay 1) | EGFR activity (% Control, 1.0 μM drug) Assay 1 L858R (EGFR L858R Ba/F3 cells; 1.0 μM drug, Assay 1) | EGFR activity (% Control, 1.0 μM drug) Assay 2 L858R (EGFR L858R Ba/F3 cells; 1.0 μM drug) | IC50 (EGFR Del Ba/F3 cells; Assay 1) | IC50 ([1]; Assay 1) | IC50 [4] | IC50 (EGFR L858R Ba/F3 cells; Assay 1) | IC50 [6] | EGFR activity (% Control, 100 nM drug) L858R/L718Q [7] | EGFR activity (% Control, 100 nM drug) L858R/T790M ([4]; Table F) | EGFR activity (% Control, 100 nM drug) L858R (EGFR L858R Ba/F3 cells; Table F) | EGFR activity (% Control, 100 nM drug) L858R/T790M/L718Q [6] | EGFR activity (% Control, 100 nM drug) Del (EGFR Del Ba/F3 cells) | EGFR activity (% Control, 100 nM drug) DEL/T790M ([1]; 100 nM drug, Table F) | further results
C=CC(=O)Nc1cccc(N(C(=O)Nc2ccccc2Cl)c2cc(Nc3ccc(N4CCN(C)CC4)cc3OC)ncn2)c1 [Compound 11A] | 103 % Control | 84 % Control | 2 % Control | 3 % Control | – | – | – | – | – | – | – | – | – | – | – | EGFR activity (% Control, 1.0 μM drug) Assay 1 Del (EGFR Del Ba/F3 cells; 1.0 μM drug, Assay 1): 3 % Control; EGFR activity (% Control, 1.0 μM drug) Assay 2 Del (EGFR Del Ba/F3 cells; 1.0 μM drug, Assay 2): 4 % Control; EGFR activity (% Control, 1.0 μM drug) Assay 1 Del/T790M ([1]; 1.0 μM drug, Assay 1): 1 % Control; EGFR activity (% Control, 1.0 μM drug) Assay 2 Del/T790M ([1]; 1.0 μM drug, Assay 2): 5 % Control; EGFR activity (% Control, 1.0 μM drug) Assay 2 Del/T790M/L718Q ([2]; 1.0 μM drug, Assay 2): 82 % Control
C=CC(=O)Nc1cccc(N(C(=O)NCc2cccs2)c2cc(Nc3ccc(N4CCOCC4)cc3OC)ncn2)c1 [Compound 55A] | – | – | – | – | 2 nM | 15.9 nM | 2.4 nM | 0.5 nM | 657 nM | – | – | – | – | – | – | Microsome Stability Mouse min [3]: 1.8 min; IC50 [5]: 2.3 nM
C=CC(=O)Nc1cccc(N(C(=O)N[C@@H](C)c2ccccc2)c2cc(Nc3ccc(N4CCN(C)CC4)cc3OC)ncn2)c1 [Compound 34A] | – | – | – | – | 19.7 nM | 60.4 nM | 20 nM | 0.51 nM | 312 nM | – | – | – | – | – | – | Microsome Stability Mouse min [3]: 9.4 min; IC50 [5]: 10.1 nM
C=CC(=O)Nc1cccc(N(C(=O)NCc2ccccc2)c2cc(Nc3ccc(N4CCN(C)CC4)cc3OC)nc(Cl)n2)c1 [Compound 78A] | – | – | – | – | 23.9 nM | 68.2 nM | 41.8 nM | 2.66 nM | 2240 nM | – | – | – | – | – | – | IC50 [5]: 19.9 nM
C=CC(=O)Nc1ccc(OC)c(Nc2cc(N(C(=O)Nc3c(C)cccc3C)c3ccc(N4CCN(CC)CC4)cc3)ncn2)c1 [Compound 9A] | 93 % Control | 90 % Control | 2 % Control | 2 % Control | – | – | – | – | – | – | – | – | – | – | – | EGFR activity (% Control, 1.0 μM drug) Assay 1 Del (EGFR Del Ba/F3 cells; 1.0 μM drug, Assay 1): 3 % Control; EGFR activity (% Control, 1.0 μM drug) Assay 2 Del (EGFR Del Ba/F3 cells; 1.0 μM drug, Assay 2): 4 % Control; EGFR activity (% Control, 1.0 μM drug) Assay 1 Del/T790M ([1]; 1.0 μM drug, Assay 1): 2 % Control; EGFR activity (% Control, 1.0 μM drug) Assay 2 Del/T790M ([1]; 1.0 μM drug, Assay 2): 39 % Control; EGFR activity (% Control, 1.0 μM drug) Assay 2 Del/T790M/L718Q ([2]; 1.0 μM drug, Assay 2): 86 % Control
C=CC(=O)Nc1ccc(OC)c(N(C(=O)Nc2c(C)cccc2C)c2cc(Nc3ccc(N4CCN(CC)CC4)cc3)ncn2)c1 [Compound 8A] | 108 % Control | 113 % Control | 2 % Control | 10 % Control | – | – | – | – | – | – | – | – | – | – | – | EGFR activity (% Control, 1.0 μM drug) Assay 1 Del (EGFR Del Ba/F3 cells; 1.0 μM drug, Assay 1): 3 % Control; EGFR activity (% Control, 1.0 μM drug) Assay 2 Del (EGFR Del Ba/F3 cells; 1.0 μM drug, Assay 2): 72 % Control; EGFR activity (% Control, 1.0 μM drug) Assay 1 Del/T790M ([1]; 1.0 μM drug, Assay 1): 1 % Control; EGFR activity (% Control, 1.0 μM drug) Assay 2 Del/T790M ([1]; 1.0 μM drug, Assay 2): 100 % Control; EGFR activity (% Control, 1.0 μM drug) Assay 2 Del/T790M/L718Q ([2]; 1.0 μM drug, Assay 2): 93 % Control
C=CC(=O)Nc1cccc(Oc2nc(Nc3ccc(N4CCN(C)CC4)cc3OC)ncc2Cl)c1 [WZ4002, reference compound] | 93 % Control | – | 2 % Control | 2 % Control | – | – | – | – | – | 94 % Control | 3 % Control | 2 % Control | 104 % Control | – | – | EGFR activity (% Control, 1.0 μM drug) Assay 1 Del (EGFR Del Ba/F3 cells): 3 % Control; EGFR activity (% Control, 1.0 μM drug) Assay 2 Del (EGFR Del Ba/F3 cells): 6 % Control; EGFR activity (% Control, 100 nM drug) DEL/T790M [1]: 2 % Control; EGFR activity (% Control, 100 nM drug) Del/T790M [1]: 6 % Control; EGFR activity (% Control, 1.0 μM drug) Assay 1 Del/T790M [1]: 1 % Control; EGFR activity (% Control, 1.0 μM drug) Assay 2 Del/T790M [1]: 3 % Control; EGFR activity (% Control, 1.0 μM drug) Assay 1 Del/T790M/L718Q [2]: 91 % Control; EGFR activity (% Control, 1.0 μM drug) Assay 2 Del/T790M/L718Q [2]: 85 % Control; EGFR activity (% Control, 100 nM drug) L858R/T790M ([4]; Table G): 30 % Control; EGFR activity (% Control, 100 nM drug) L858R (EGFR L858R Ba/F3 cells; Table G): 0 % Control
Cc1ccc(C(=O)Nc2ccc(CN3CCN(C)CC3)c(C(F)(F)F)c2)cc1C#Cc1cnc2cccnn12 [Ponatinib] | – | 48 % Control | – | – | – | – | – | – | – | – | – | – | – | – | – | EGFR activity (% Control, 1.0 μM drug) Assay 1 Del (EGFR Del Ba/F3 cells): 17 % Control; KIF5B/Ret_V804M Ba/F3 cell growth (% control, 1.0 μM drug) (KIF5B/Ret_V804M; Assay 1): 2 % Control; EGFR activity (% Control, 1.0 μM drug) Assay 1 Del/T790M [1]: 79 % Control; EGFR activity (% Control, 1.0 μM drug) Assay 1 L858R (EGFR L858R Ba/F3 cells): 98 % Control
C=CC(=O)Nc1cccc(Nc2cc(N(C)C(=O)NCc3ccccc3)ncn2)c1 [Compound 17A] | – | – | – | – | 63.9 nM | 682 nM | 275 nM | 7.62 nM | 2500 nM | 81 % Control | 52 % Control | 2 % Control | 85 % Control | 28 % Control | 85 % Control | IC50 [7]: 1960 nM
CN(C)C/C=C/C(=O)Nc1cccc(Nc2cc(N(C)C(=O)Nc3ccccc3)ncn2)c1 [Compound 21A] | – | – | – | – | – | – | – | – | – | 94 % Control | 100 % Control | 4 % Control | 102 % Control | 10 % Control | 107 % Control | –
C=CC(=O)Nc1ccc(OC)c(Nc2cc(N(C)C(=O)Nc3ccccc3)ncn2)c1 [Compound 12A] | – | – | – | – | – | – | – | – | – | 47 % Control | 48 % Control | 1 % Control | 84 % Control | 0 % Control | 117 % Control | –
C=CC(=O)Nc1cccc(Nc2cc(N(C)C(=O)Nc3ccc(F)c(Cl)c3)ncn2)c1 [Compound 19A] | – | – | – | – | – | – | – | – | – | 74 % Control | 101 % Control | 100 % Control | 99 % Control | 79 % Control | 71 % Control | –
C=CC(=O)Nc1ccc(OC)c(Nc2cc(N(C)C(=O)Nc3ccccc3)ncn2)c1 [Compound 74A] | – | – | – | – | 5.16 nM | 278 nM | 215 nM | 0.572 nM | 780 nM | – | – | – | – | – | – | IC50 [7]: 243 nM
